Key:
[1] = 101 kPa, Liquid; for viscosity: Capillary tube (Ostwald / Ubbelohde) method
[2] = xn = mol fraction of the nth substance listed; details: 101 kPa, Liquid; for viscosity: Capillary tube (Ostwald / Ubbelohde) method

CCN(CC)c1ccccc1 [N,N-diethylaniline]
[1]
Details	viscosity [mPa·s]
303.15 K	1.703
313.15 K	1.402
323.15 K	1.049

[1], Vibrating tube method
Details	mass density [kg/m3]
303.15 K	925.98
313.15 K	917.72
323.15 K	912.8

CN(C)c1ccccc1 [N,N-dimethylaniline]
[1]
Details	viscosity [mPa·s]
303.15 K	1.174
313.15 K	0.9823
323.15 K	0.8259

[1], Pycnometric method
Details	mass density [kg/m3]
303.15 K	948.02
313.15 K	938.5
323.15 K	930.72

CCC(=O)O [propanoic acid]
[1]
Details	viscosity [mPa·s]
303.15 K	0.9496
313.15 K	0.8476
323.15 K	0.7062

[1], Pycnometric method
Details	mass density [kg/m3]
303.15 K	982.09
313.15 K	973.4
323.15 K	961.39

CCC(=O)O [propanoic acid] + CCN(CC)c1ccccc1
[2], x1 = 1
Details	viscosity [mPa·s]
303.15 K	0.9496
313.15 K	0.8476
323.15 K	0.7062

[2], Vibrating tube method, x1 = 1
Details	mass density [kg/m3]
303.15 K	982.09
313.15 K	973.4
323.15 K	961.39

CCN(CC)c1ccccc1 [N,N-diethylaniline] + CCC(=O)O
viscosity [mPa·s], [2]
Details	x2 = 0	x2 = 0.1047	x2 = 0.2096	x2 = 0.3142	x2 = 0.4164	x2 = 0.5177	x2 = 0.6097	x2 = 0.7077	x2 = 0.8123	x2 = 0.9156
303.15 K	1.703	1.801	2.04	2.404	2.91	3.663	4.04	3.968	3.26	1.532
313.15 K	1.402	1.45	1.59	1.765	2.118	2.527	2.88	2.737	2.086	1.247
323.15 K	1.049	1.068	1.173	1.315	1.555	1.865	2.1	1.949	1.51	0.9723

mass density [kg/m3], [2], Vibrating tube method
Details	x2 = 0	x2 = 0.1047	x2 = 0.2096	x2 = 0.3142	x2 = 0.4164	x2 = 0.5177	x2 = 0.6097	x2 = 0.7077	x2 = 0.8123	x2 = 0.9156
303.15 K	925.98	933.41	942.07	952.1	963.82	977.88	989.1	996.15	995	990.93
313.15 K	917.72	924.61	932.8	942.21	953.72	967.27	977.5	983.95	982.7	980.07
323.15 K	912.8	919.51	926.38	934.92	944.35	955.31	965.34	971.29	974.71	974.19

CN(C)c1ccccc1 [N,N-dimethylaniline] + CCC(=O)O
viscosity [mPa·s], [2]
Details	x2 = 0	x2 = 0.102	x2 = 0.2054	x2 = 0.3071	x2 = 0.4092	x2 = 0.5107	x2 = 0.6178	x2 = 0.7083	x2 = 0.8023	x2 = 0.8987
303.15 K	1.174	1.27	1.329	1.386	1.446	1.494	1.545	1.534	1.457	1.225
313.15 K	0.9823	1.019	1.058	1.093	1.124	1.149	1.151	1.119	1.06	0.9646
323.15 K	0.8259	0.8432	0.8693	0.8949	0.9196	0.9397	0.9442	0.9121	0.864	0.7783

mass density [kg/m3], [2], Pycnometric method
Details	x2 = 0	x2 = 0.102	x2 = 0.2054	x2 = 0.3071	x2 = 0.4092	x2 = 0.5107	x2 = 0.6178	x2 = 0.7083	x2 = 0.8023	x2 = 0.8987
303.15 K	948.02	954.36	959.8	964.49	969.31	974.03	978.56	982.24	985.32	986.44
313.15 K	938.5	943.74	949.09	954.21	959.17	963.99	968.62	972.2	975.35	975.69
323.15 K	930.72	934.82	939.72	944.52	–	953.51	958	961.05	963.47	963.54

CCC(=O)O [propanoic acid] + CN(C)c1ccccc1
[2], x1 = 1
Details	viscosity [mPa·s]
303.15 K	0.9496
313.15 K	0.8476
323.15 K	0.7062

[2], Pycnometric method, x1 = 1
Details	mass density [kg/m3]
303.15 K	982.09
313.15 K	973.4
323.15 K	961.39
